According to publication PMC9582717 (The Journal of Biological Chemistry, 2022):

Target: T1, SmChiP (chitoporin) (Serratia marcescens, UniProt I7GPX7)
T1 sequence (I7GPX7 28-467): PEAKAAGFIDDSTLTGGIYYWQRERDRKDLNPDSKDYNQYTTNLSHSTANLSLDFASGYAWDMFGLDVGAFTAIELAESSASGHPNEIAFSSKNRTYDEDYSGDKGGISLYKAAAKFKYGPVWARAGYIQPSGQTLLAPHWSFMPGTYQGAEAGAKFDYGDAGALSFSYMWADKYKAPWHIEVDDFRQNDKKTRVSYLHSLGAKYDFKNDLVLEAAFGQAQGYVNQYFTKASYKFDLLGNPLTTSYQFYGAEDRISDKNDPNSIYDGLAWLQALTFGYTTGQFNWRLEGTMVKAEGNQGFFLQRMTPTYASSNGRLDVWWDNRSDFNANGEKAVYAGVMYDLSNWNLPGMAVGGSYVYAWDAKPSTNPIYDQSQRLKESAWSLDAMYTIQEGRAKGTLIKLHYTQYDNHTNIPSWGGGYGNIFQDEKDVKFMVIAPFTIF
Test: isothermal titration calorimetry
Conditions: detergent-solubilized protein; one-site binding model

| SMILES | Kd |
| --- | --- |
| CC(=O)N[C@H]1[C@H](O[C@H]2[C@H](O)[C@@H](NC(C)=O)[C@H](O[C@H]3[C@H](O)[C@@H](NC(C)=O)C(O)O[C@@H]3CO)O[C@@H]2CO)O[C@H](CO)[C@@H](O[C@@H]2O[C@H](CO)[C@@H](O[C@@H]3O[C@H](CO)[C@@H](O[C@@H]4O[C@H](CO)[C@@H](O)[C@H](O)[C@H]4NC(C)=O)[C@H](O)[C@H]3NC(C)=O)[C@H](O)[C@H]2NC(C)=O)[C@@H]1O (some centres unmarked) [chitohexaose] | 17 ± 0.6 µM |
| CC(=O)N[C@H]1[C@H](O[C@H]2[C@H](O)[C@@H](NC(C)=O)[C@H](O[C@H]3[C@H](O)[C@@H](NC(C)=O)C(O)O[C@@H]3CO)O[C@@H]2CO)O[C@H](CO)[C@@H](O[C@@H]2O[C@H](CO)[C@@H](O[C@@H]3O[C@H](CO)[C@@H](O)[C@H](O)[C@H]3NC(C)=O)[C@H](O)[C@H]2NC(C)=O)[C@@H]1O (some centres unmarked) [chitopentaose] | 23 ± 2 µM |
